From US20250228241A1, “P[…] COMPOUND OR SALT THEREOF, PEST CONTROL AGENT CONTAINING SAID COMPOUND AS ACTIVE INGREDIENT, AND PEST CONTROL METHOD” (NIHON NOHYAKU CO., LTD., priority 2021, published 2025)

Tests used:
Assay type in all cases: in vivo
[1] = test system: green peach aphid (Myzus persicae); experiment: Control value test against the green peach aphid (foliar spray on Chinese cabbage); conditions: 500 ppm spray on stems and leaves of Chinese cabbage, 6th day after spray
Description: Chinese cabbage was planted in plastic pots with a diameter of 8 cm and a height of 8 cm to breed green peach aphids, and the number of the infesting aphids in each pot was investigated. The present inventive compound was dispersed in water and diluted to a 500 ppm chemical solution, and the chemical solution was sprayed on the stems and leaves of the Chinese cabbage plants planted in the pots. After air drying, the pots were kept in a greenhouse. On the 6th day after the spray of the chemical solution, the number of the green peach aphids infesting on each Chinese cabbage plant was counted and the control value was calculated on the following equation, whereby the effect was judged according to the criterion below.
The Comparative test compound was tested in the same way, and the control value was calculated and judged.
[formula] • Ta: number of infestants before spraying in the treated group, • T: number of infestants after spraying in the treated group, • Ca: number of infestants before spraying in the untreated group, • C: number of infestants after spraying in the untreated group.
• A: Control value 100% • B: Control value 99-90% • C: Control value 89-80% • D: Control value 79-50%

[2] = test system: common cutworm (Spodoptera litura); experiment: Insecticidal test against the common cutworm (cabbage leaf dip); conditions: 500 ppm, cabbage leaf dipped about 30 seconds, second-instar larvae, 25° C., eight days after inoculation
Procedure: A piece of cabbage leaf (cultivar; Shikidori) was dipped for about 30 seconds in a chemical solution prepared by diluting a preparation containing the present inventive compound as an active ingredient to adjust the concentration to 500 ppm. After air dried, it was placed in a plastic Petri dish with a diameter of 9 cm and inoculated with second-instar larvae of common cutworm, after which the dish was closed and then allowed to stand in a room thermostatted at 25° C. Eight days after the inoculation, the number of the alive insects were counted. The corrected mortality was calculated according to the following equation and the insecticidal effect was judged according to the following criterion. The test was carried out with triplicate groups of 10 insects.
(§1) The Comparative test compound was tested in the same way, and the corrected mortality was calculated and judged.
(§2) [formula] • Criterion: A: Corrected mortality 100% • B: Corrected mortality 99%-90% • C: Corrected mortality 89%-80% • D: Corrected mortality 79%-50%

[3] = test system: smaller brown planthopper (Laodelphax striatellus); experiment: Insecticidal test against the smaller brown planthopper (rice seedling immersion); conditions: 500 ppm, rice seedling immersed 30 seconds, third instar nymphs, eight days after
Description: The present inventive compound was dispersed in water to adjust the concentration to 500 ppm and a rice seedling was immersed therein for 30 seconds; after air dried, the seedling was put in a test tube, 10 third instar nymphs were inoculated and the test tube was sealed with a cotton plug. Eight days after, the alive and dead insects were counted to calculate the corrected mortality according to the following equation and the insecticidal effect was judged according to the criterion shown below.
as §1, §2

[4] = test system: diamond back moth (Plutella xylostella); experiment: Insecticidal test against the diamond back moth (Chinese cabbage seedling with eggs, immersion); conditions: 500 ppm, seedling with eggs immersed about 30 seconds, 25° C., six days after immersion
Procedure: The adult diamond back moths were released and allowed to oviposit on a Chinese cabbage seedling. Two days after the release, the seedling having the eggs deposited thereon was immersed for about 30 seconds in a liquid chemical prepared by diluting a preparation containing the present inventive compound as an active ingredient to adjust the concentration to 500 ppm. After air dried, it was allowed to stand in a room thermostatted at 25° C. Six days after the immersion, the alive insects were counted. The corrected mortality was calculated according to the following equation and the insecticidal effect was judged according to the criterion shown below. The test was carried out with triplicate groups.
as §1, §2

[5] = test system: Western honeybees (Apis mellifera); experiment: Safety test for the Western honeybee (oral acute toxicity test)
Procedure: Seven to ten adult Western honeybees (Apis mellifera) were released in a plastic cage (8 cm×12 cm×20 cm), and after fasting for 2 hours, they were oral administered, using a 1.5 ml microtube, with a 50% sucrose solution as a test bait containing a chemical solution of a predetermined concentration. Four hours after the administration, the test bait was taken out, and the amount of the compound taken per animal was calculated from the remaining amount. At the same time, the animals were fed with a sufficient amount of 50% sucrose solution, maintained at 25° C., H55-75%, 16L8D. The numbers of dead and abnormal insects were counted after 24, 48 and 96 hours to calculate the median lethal dose (LD50 value). The untreated group was fed with a 50% sucrose solution […] and was maintained under the same conditions as the chemical-treated group.

Compound | control value (activity class) [1] | corrected mortality (activity class) [2] | corrected mortality (activity class) [3] | corrected mortality (activity class) [4] | improvement in safety for the Western honeybee compared with the comparative compound ([5]; from oral LD50 values after 96 hours) | LD50 value for one adult honeybee ([5]; oral, after 96 hours, per adult honeybee)
C[C@H](NC(=O)c1cc(C(F)(F)F)cc(C(F)(F)F)c1)c1ncnn1-c1ncccn1 [comparative compound, (S)—N-(1-(1-(pyrimidin-2-yl)-1H-1,2,4-triazol-5-yl)ethyl)-3,5-bis(trifluoromethyl)benzamide, reference compound] | B or higher | B or higher | B or higher | B or higher |  | 
C[C@H](NC(=O)c1cc(C(F)(F)F)cc(C(F)(F)F)c1)c1ncnn1-c1cc(C(F)(F)F)ncn1 [present inventive compound, (S)—N-(1-(1-(6-trifluoromethylpyrimidin-4-yl)-1H-1,2,4-triazol-5-yl)ethyl)-3,5-bis(trifluoromethyl)benzamide] | B or higher | B or higher | B or higher | B or higher | more than 200 times | 2.04 µg
